Reference: patent publication US20100104629A1, “CATIONIC LIPIDS AND USES THEREOF” (ABBOTT LABORATORIES, priority 2008, published 2010)

Key:
[1] = tested on: β-galactosidase in tumor sections; experiment: IHC analysis of β-galactosidase in intraliver tumors after i.v. dosing of formulated siRNA; assay type: in vivo, Scid female mice; set-up: key to β-galactosidase IHC staining score, column 1 / β-galactosidase IHC staining score, column 2 / β-galactosidase IHC staining score, column 3 / β-galactosidase IHC staining score, column 4 / β-galactosidase IHC staining score, column 5 / β-galactosidase IHC staining score, column 6: −: there was no staining, a small area of weak staining, or disperse strong single cell staining; +/−: there was 5% of the section with weak staining or one patch of strong staining; +: there was 15% of the section with strong staining; ++: there was ˜50% of the section with strong straining; +++: there was 80% of the section with strong straining; ++++: the whole section had strong staining
Method: The animal studies were carried out in accordance with internal Institutional Animal Care and Use Committee (IACUC) guidelines at Abbott Laboratories. Scid female mice at 6 to 8 weeks of age were obtained from Charles River Laboratory and used for intraliver tumor models. Mouse livers were exposed by vertical incision on mouse abdomens and the tumor cells were directly injected into the livers. The incision was closed by suture and wound clips. All cell lines used for creating xenograft tumors were subjected to the IMPACT profile I test (18 agents) at the University of Missouri Research Animal Diagnostic and Investigative Laboratory, and all cell lines were found negative for the 18 infectious agents tested. Tumor cells were suspended in a 1:1 mixture of S-MEM (Invitrogen, Carlsbad, Calif.) and matrigel (BD Bioscience, San Jose, Calif.) and inoculated at 1×10E6 cells per animal.
Treatments were started 3˜4 weeks after tumor inoculation. Formulated or unformulated siRNAs were administrated via tail vein (i.v) injection.
IHC was carried out as previously described [Li, L., et al., Evaluating hypoxia-inducible factor-1alpha as a cancer therapeutic target via inducible RNA interference in vivo. Cancer Res, 2005. 65(16): p. 7249-58]. Briefly, tumors were excised, cut into pieces of less than 3 mm in thickness and immediately fixed in buffered formalin solution with neutral pH (Sigma, St. Louis, Mo.). The formalin-fixed and paraffin-embedded tumor sections were then used for staining The mouse anti-β-galactosidase mAb (Promega, Madison, Wis.) was used to detect β-galactosidase in tumor sections. DAB (3,3′-diaminobenzidine) was used as the chromogen. IHC images were acquired using the Nikon TE2000 inverted microscope. The β-galactosidase staining was evaluated by 2 people independently based on the scoring system listed below. The average of the score was calculated for each tumor.
−, there was no staining, a small area of weak staining, or disperse strong single cell staining +/−, there was 5% of the section with weak staining or one patch of strong staining +, there was 15% of the section with strong staining ++, there was ˜50% of the section with strong straining +++, there was 80% of the section with strong straining ++++, the whole section had strong staining

MDA435-TetR-Luc cells = experiment: Transfection efficiency of MDA435-TetR-Luc cells with Lipid-Based Particles (TetRLuc assay); assay type: cell-based; settings: formulation employing the cationic lipid
Method: To determine the knockdown efficacy of Lipid-Based Particles in an in vitro assay, MDA435-TetR-Luc cells (The positive readout reporter cell line MDA435-TetR-Luc contained a stably integrated copy of the luciferase gene expressed from a CMV promoter containing the tetR operator site. In addition, gene coding for a destabilized TetR protein was expressed in this cell line.) were plated in 96 well plate at a density of 10K cells per well in 100 ul of DMEM (Dulbecco's Modified Eagles Medium, Invitrogen Corp.) containing 10% fetal bovine serum (Invitrogen Corp.). Appropriate dilutions of Lipid-Based Particles were made in DMEM+10% fetal bovine serum medium, 10 ul of the diluted material was transferred into each well in triplicate. Transfected cells were further incubated at 37° C. for a period of 72 hours. […] The graphs represent average of triplicate readings of the Lipid-Based Particles treated sample divided by the average of readings from 9 wells treated with doxycycline.
The ability of novel cationic lipids to transfect siRNA in vitro was evaluated in the TetRLuc assay. By utilizing a releasable PEG lipid as for examples in formulations “a” or “b”, the transfection efficiency of the unshielded or partially shielded particle may be determined.

Row | SMILES | β-galactosidase IHC staining score, column 1 ([1]; intraliver tumor, i.v. tail vein, column 1 of 6 (not further defined)) | β-galactosidase IHC staining score, column 2 ([1]; intraliver tumor, i.v. tail vein, column 2 of 6 (not further defined)) | β-galactosidase IHC staining score, column 3 ([1]; intraliver tumor, i.v. tail vein, column 3 of 6 (not further defined)) | β-galactosidase IHC staining score, column 4 ([1]; intraliver tumor, i.v. tail vein, column 4 of 6 (not further defined)) | β-galactosidase IHC staining score, column 5 ([1]; intraliver tumor, i.v. tail vein, column 5 of 6 (not further defined)) | β-galactosidase IHC staining score, column 6 ([1]; intraliver tumor, i.v. tail vein, column 6 of 6 (not further defined)) | in vivo delivery ([1]; formulation employing the cationic lipid) | in vitro transfection activity (MDA435-TetR-Luc cells)
1 | C[C@H]1c2cccc(O)c2C(=O)C2=C(O)[C@]3(O)C(=O)C(C(N)=O)=C(O)[C@@H](N(C)C)[C@@H]3[C@@H](O)[C@@H]21 [Doxycycline] | +++ | +++ | +++ | +++ | +++ | +++ | – | –
2 | CCCCC/C=C\C/C=C\CCCCCCCCOCC(CN1CCCC1)OCCCCCCCC/C=C\C/C=C\CCCCC (stereo not drawn) [Example 1, 1-(2,3-bis((9Z,12Z)-octadeca-9,12-dienyloxy)propyl)pyrrolidine] | – | – | – | – | – | – | efficient in vivo delivery | provided in vitro transfection activity
3 | CCCCC/C=C\C/C=C\CCCCCCCCOCC(CN(CC)CC)OCCCCCCCC/C=C\C/C=C\CCCCC (stereo not drawn) [Example 57, N,N-diethyl-2,3-bis((9Z,12Z)-octadeca-9,12-dienyloxy)propan-1-amine] | – | – | – | – | – | – | – | may diminish activity
